Where no end group is shown, it is not given here. The star is where a group is joined. ξ: configuration not given here. Lipoyl(6ξ) = O=C(CCCCC1CCSS1)*
Experiments:
BEAS-2B cells [1] = assay: In vitro transfection, Metridia luciferase assay in BEAS-2B cells; format: cell-based, human; details: for pDNA transfection efficiency of P704 ternary complex (in words): MetLuc pDNA, P704 50 (w/w), FIG. 14a
Experimental: (§1) Preparation of IVT-mRNA/pDNA containing binary and ternary complexes: Stock solutions of P704 (5 mg/ml) and synthetic compound (1 mg/ml) were prepared in nuclease-free water (NF water) and stored at 4° C. P704 based binary complexes (P704/IVT-mRNA or P704/pDNA) were prepared by mixing equal volumes of diluted P704 stock solution with IVT-mRNA or pDNA solution at the desired concentration in 2× Tyrode's solution. Ternary complexes were generated via two-steps incubation. Briefly, P704 solutions at certain concentration (defined as weight/weight (w/w) ratio between P704 and nucleic acids) in NF-water were mixed with equal volume of synthetic compound solution at specific concentration (defined as N/P ratio, namely the […] between nitrogen residues in synthetic compound and nucleic acids phosphate groups). After 20 min incubation at room temperature (RT), same volumes of nucleic acid (IVT-mRNA or pDNA) solution in NF-water were added to the above P704/synthetic compound solution and mixed gently by pipetting up and down several times. Subsequently, complexes were incubated for another 20 min at RT prior to further use. IVT-mRNA or pDNA solutions in NF-water were complexed with brPEI (25 kDa) at an optimum N/P ratio, the resulting complexes were served as a control polyplex. As for control lipoplex, Lipofectamine® 2000 complexes were prepared according to the manufacturer's instructions using optimum concentration. In order to prepare DOTAP/DOPE liposomes, a lipid film was formed by removing the chloroform solvent in DOTAP/DOPE mixture solution under nitrogen atmosphere. The lipid film is hydrated with NF-water to make the final concentration 10 mM DOTAP/DOPE. The DOTAP/DOPE liposome formulation was formed by mixing 250 μl of pDNA encoding for firefly luciferase and cystic fibrosis transmembrane conductance regulator (fLUC-CFTR pDNA) (150 μg) containing solution and 250 μl diluted DOTAP/DOPE solution (190 μl of 10 mM DOTAP/DOPE liposome and 60 μl NF-water). The mix solution was incubated at RT for 20 min prior to further use.
(§2) In vitro transfection: For the luciferase assay, cells were seeded at a density of 1.8×10^4/well (BEAS-2B) or 3.5×10^4/well (16HBE) in 96-well plates 24 h before transfection to reach 60-80% confluence. Following removal of growth medium, cells were rinsed with DPBS (Gibco, Germany). 170 μl of fresh serum-free OptiMEM (Gibco, Germany) were added per well, and subsequently 30 μl of IVT-mRNA or pDNA containing complexes prepared, as described above, corresponding to 400 ng IVT-mRNA or pDNA per well, were added in replicates of five. After 4 h of incubation at 37° C. in a humidified 5% CO2-containing atmosphere, the transfection medium was replaced with culture medium supplemented with 10% FBS and 1% (v/v) penicillin/streptomycin. Luciferase activity in 50 μl supernatants from transfected cells was assayed with Metridia luciferase substrate (coelenterazine, Invivogen, France) after 24 h using a FLUOstar microplate reader (BMG Labtech, Germany) and its activity is expressed in relative light units (RLU). In all cases each sample was measured on at least two other occasions to ensure the reproducibility of the data.
The same transfection procedure as described above was applied. Luciferase activity was expressed in RLU. The data are given as the mean±standard deviation (SD) of the mean (n>5) in FIGS. 12a to 12k.
(§3) The concentration of P704 in ternary complexes for treatment of BEAS-2B cells was 50 (w/w) and the concentration of P704 in ternary complexes for treatment of 16HBE cells was 63 (w/w). The N/P ratios of the compounds in ternary complexes were as follows:
BEAS-2B cells: Compound 0 (DL) at 30, compound 1 at 20, compounds 3 and 11 at 15, compounds 4 and 6 at 10, compounds 2 and 9 at 5, compounds 5, 7, 8 and 10 at 2.5.
The same transfection procedure as described above was applied. Luciferase activity was expressed in RLU. […]

16HBE cells [2] = assay: In vitro transfection, Metridia luciferase assay in 16HBE cells; format: cell-based, human; details: for pDNA transfection efficiency of P704 ternary complex (in words): MetLuc pDNA, FIG. 14b
Experimental: as §1
as §2, with “data. […]” for “data.”
as §3
16HBE cells: Compound 0 (DL) at 20, compounds 1 and 11 at 15, compounds 2 and 3 at 10, compounds 4, 6, 8, and 9 at 5, compounds 5, 7, and 10 at 2.5.
The same transfection procedure as described above was applied.
The concentration of P704 in ternary complexes was 63 (w/w). The N/P ratio of the compounds in certain ternary complexes was as follows:
16HBE cells: Compound 1, 8, and 11 at 20; compound 0 (DL) and 3 at 10; compound 2 at 7.5; compounds 4, 6, 9, and 10 at 5, compounds 5 and 7 at 2.5. […]

[3] = normalized: most hydrophobic residue 100, glycine 0, cited from earlier work; for hydrophobicity index At pH 2: from Sereda et al. 1994; for hydrophobicity index At pH 7: from Monera et al. 1995
BEAS-2B cells [4] = assay: In vitro transfection, Metridia luciferase assay in BEAS-2B cells; format: cell-based, human; details: for pDNA expression compared with compound 0 containing ternary complexes: day 3
16HBE cells [5] = assay: In vitro transfection, Metridia luciferase assay in 16HBE cells; format: cell-based, human
airway epithelium cells = assay: In vitro transfection study on cultured airway epithelium cells (luciferase, RLU/mg cellular protein); format: cell-based; details: ternary complexes formed by P704, a nucleic acid and the compound
Experimental: as §2, with “Luciferase activity in 50 μl supernatants from transfected cells was” left out, “[…]).” for “Germany) and its activity is expressed in relative light units (RLU).”

[6] = MetLuc mRNA, optimum composition
[7] = MetLuc pDNA, P704 ternary complex, day 3, optimum composition

Compound	hydrophobicity index At pH 2 [3]	hydrophobicity index At pH 7 [3]	also measured
O=C(O)CCCCC1CCSS1 (racemic) [compound 2, DL-lipoic acid, reference compound]			IVT-mRNA transfection efficiency of P704 ternary complex (in words) (BEAS-2B cells [1]; MetLuc mRNA, P704 63 (w/w), optimum N/P, FIG. 17a): rather low transfection efficiency; pDNA transfection efficiency of P704 ternary complex (in words) (BEAS-2B cells [1]; optimum N/P): rather low transfection efficiency; IVT-mRNA transfection efficiency of P704 ternary complex (in words) (16HBE cells [2]; MetLuc mRNA, P704 63 (w/w), optimum N/P, FIG. 17b): rather low transfection efficiency; pDNA transfection efficiency of P704 ternary complex (in words) (16HBE cells [2]; P704 63 (w/w), optimum N/P): rather low transfection efficiency
C[C@H](N)C(=O)O [Alanine (ala), Alanine]	47	41	
NC(=O)C[C@H](N)C(=O)O [Asparagine (asn), Asparagine]	−41	−28	
N[C@@H](CS)C(=O)O [Cysteine (cys), Cysteine]	52	49	
N[C@@H](Cc1c[nH]cn1)C(=O)O [Histidine (his), Histidine]	−42	8	
CC[C@H](C)[C@H](N)C(=O)O [Isoleucine (ile), Isoleucine]	100	99	
NCCCC[C@H](N)C(=O)O [Lysine (lys), Lysine]	−37	−23	
CSCC[C@H](N)C(=O)O [Methionine (met), Methionine]	74	74	
N[C@@H](Cc1ccccc1)C(=O)O [Phenylalanine (phe), Phenylalanine]	92	100	
N[C@@H](Cc1c[nH]c2ccccc12)C(=O)O [Tryptophan (trp), Tryptophan]	84	97	
N[C@@H](Cc1ccc(O)cc1)C(=O)O [Tyrosine (tyr), Tyrosine]	49	63	
CC(C)[C@H](N)C(=O)O [Valine (val), Valine]	79	76	
DL-lipoic acid-WKKKKRRRRRKKKK-GACSERSMNFCG ({Lipoyl(6ξ)}-WKKKKRRRRRKKKKGACSERSMNFCG; cysteine pairing not given here) [compound 4]			pDNA transfection efficiency of P704 ternary complex (in words) (BEAS-2B cells [1]; optimum N/P): similar
DL-lipoic acid-WKKKKRRRRRKKKK-GACYGLPHKFCG ({Lipoyl(6ξ)}-WKKKKRRRRRKKKKGACYGLPHKFCG; cysteine pairing not given here) [compound 5]			pDNA transfection efficiency of P704 ternary complex (in words) (BEAS-2B cells [1]; optimum N/P): similar; pDNA expression compared with compound 0 containing ternary complexes (BEAS-2B cells [4]): slightly better
DL-lipoic acid-WKKRRRRRRRRKK-GACYGLPHKFCG ({Lipoyl(6ξ)}-WKKRRRRRRRRKKGACYGLPHKFCG; cysteine pairing not given here) [compound 7]			pDNA transfection efficiency of P704 ternary complex (in words) (BEAS-2B cells [1]; optimum N/P): similar; pDNA expression compared with compound 0 containing ternary complexes (BEAS-2B cells [4]): slightly better
DL-lipoic acid-WKKRRRRRRRRRKK-GACSERSMNFCG ({Lipoyl(6ξ)}-WKKRRRRRRRRRKKGACSERSMNFCG; cysteine pairing not given here) [compound 6]			pDNA transfection efficiency of P704 ternary complex (in words) (16HBE cells [2]; P704 63 (w/w), optimum N/P): overwhelming signals
DL-lipoic acid-WLHHHKKLLHHHKKL-GACSERSMNFCG ({Lipoyl(6ξ)}-WLHHHKKLLHHHKKLGACSERSMNFCG; cysteine pairing not given here) [compound 8]			luciferase expression of ternary complexes with P304 and MetLuc mRNA (16HBE cells [5]; P304 2000 (w/w), high N/P ratio, even higher than compound 9, FIG. 25a): rather high luciferase expression
NH2-VKRKKKPKKRRRRKK-CONH2 (H-VKRKKKPKKRRRRKK-NH2) [compound 1]			IVT-mRNA transfection efficiency relative to P704/compound 0/IVT-mRNA complex (BEAS-2B cells [1]; [6]): one third; IVT-mRNA transfection efficiency relative to P704/compound 0/IVT-mRNA complex (16HBE cells [2]; [6]): one third; pDNA transfection, share of maximum signal intensity of compound 0 counterpart (BEAS-2B cells [4]; [7]): 7%; pDNA transfection, share of maximum signal intensity of compound 0 counterpart (16HBE cells [5]; [7]): half
NH2-VKRKKKPKKRRRRKKWK(R-lipoic acid)-CONH2 (H-VKRKKKPKKRRRRKKWK(R‑lipoic acid)-NH2) [compound 0 (R)]			transfection efficiencies of ternary complexes with compound 0 (DL) versus compound 0 (R) (airway epithelium cells): similar

Reference: patent US11077205B2, “Synthetic compound for improving efficiency of transfection” (Klinikum der Universität München, priority 2016, dated 2021)
